Conditions in all cases: incubation time: 72 h
One assay relates to CAL-120. Description: normalised viability (% of control), CellTiter-Blue; higher = more viable cells (100 = DMSO, 0 = benzethonium chloride kill control). As to the method: (§1)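 DSRT, CellTiter-Blue viability, 72 h incubation. Signal is normalised to DMSO and benzethonium chloride controls. Value is the normalised response at dose 1.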
In general terms: Alamar Blue is a resazurin reagent that responds to reducing activity.

The subject of another assay is HCC1143. The assay is described as above. The method, then:
as §1

In a further assay the test system is HCC1937. The assay is described as above. The method, then:
as §1

Assay [1] deals with CAL-85-1. The description is as above. As to the method: as §1
The subject of the next assay is MFM-223. Described as above. The method, then: as §1
A further assay concerns BT-474. The assay is described as above. The method, then: as §1
The next assay relates to SK-BR-3. Described as above. The method, then: as §1
Assay [2] deals with CAL-148. The assay is described as above. As to the method:
as §1

Assay [3] deals with HDQ-P1. The assay is described as above. The method, then: as §1
Another assay has as its system Hs578T. Described as above. As to the method:
as §1

Assay [4] relates to DU-4475. The assay is described as above. As to the method: as §1
For a further assay, the system named is MDA-MB-468. The description is as above. As to the method: as §1
Assay [5] concerns MDA-MB-453. Described as above. As to the method: as §1
For assay [6], the system named is CAL-51. Described as above. The method, then: as §1
For a further assay, the system named is MDA-MB-231. The description is as above. As to the method: as §1
The subject of another assay is MDA-MB-436. The description is as above. As to the method: as §1
Another assay has as its system BT-549. The description is as above. The method, then:
as §1

The test system of a further assay is HCC1599. Described as above. As to the method:
as §1

For assay [7], the system named is CAL-85-1. The assay can be described thus: normalised viability (% of control), CellTiter-Blue; higher = more viable cells (about 100 = DMSO control). As to the method:
(§2)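 DSRT, CellTiter-Blue viability, 72 h incubation. Signal is normalised to DMSO and benzethonium chloride controls. Value is the normalised response at dose 9.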

The subject of assay [8] is CAL-148. The assay is described as above. As to the method:
as §2

Assay [9] concerns HDQ-P1. The description is as above. As to the method:
as §2

The test system of assay [10] is DU-4475. Described as above. The method, then: as §2
In assay [11] the test system is MDA-MB-453. Described as above. As to the method:
as §2

For assay [12], the system named is CAL-51. The assay is described as above. As to the method:
as §2

Assay [13] relates to CAL-85-1. The description is as above. The method, then: (§3)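 DSRT, CellTiter-Blue viability, 72 h incubation. Signal is normalised to DMSO and benzethonium chloride controls. Value is the normalised response at dose 8.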
The source holds these as a separate data set.

The subject of assay [14] is CAL-148. The assay is described as above. As to the method: as §3
This is another data set of the same source.

Assay [15] relates to HDQ-P1. The assay is described as above. The method, then: as §3
The source holds these as a separate data set.

Assay [16] has as its system DU-4475. Described as above. As to the method: as §3
The source holds these as a separate data set.

Assay [17] has as its system MDA-MB-453. The description is as above. The method, then:
as §3
The source holds these as a separate data set.

The test system of assay [18] is CAL-51. The description is as above. The method, then: as §3
This is another data set of the same source.

On to `CC(C)Cn1cnc2c(N)nc3ccccc3c21` [Imiquimod] (1 nM), for which the normalised viability in the assay with CAL-120 is 92.5%; with HCC1143 it was 101%; in the assay on HCC1937, 118%; with CAL-85-1 [1], 108%; in the assay with MFM-223, 97%; in the assay with BT-474, 90.6%. Further, the normalised viability turned out to be 89.5% in the assay on SK-BR-3; 98.1% in the assay with CAL-148 [2]; 104% in the assay on HDQ-P1 [3]; 107% with Hs578T; 110% in the assay on DU-4475 [4]; 109% in the assay with MDA-MB-468. The normalised viability with MDA-MB-453 [5] is 108%; in the assay with CAL-51 [6], 101%; in the assay on MDA-MB-231, 85.8%; in the assay on MDA-MB-436, 107%; in the assay on BT-549, 105%; with HCC1599, 109%.
For `CC(=O)Nc1ccc(C(=O)Nc2ccccc2N)cc1` [CI-994] (1000 nM), the normalised viability worked out at 98.5% with CAL-85-1 [7]; 96.2% with CAL-148 [8]; 108% in the assay on HDQ-P1 [9]; 80.7% with DU-4475 [10]; 101% in the assay with MDA-MB-453 [11]; 95.3% in the assay on CAL-51 [12].
Consider `CC(C)Cn1cnc2c(N)nc3ccccc3c21` [Imiquimod] (10000 nM), for which the normalised viability in the assay on CAL-85-1 [7] was found to be 100%; in the assay on CAL-148 [8], 99%; in the assay on HDQ-P1 [9] it was 105%; with DU-4475 [10], 109%; in the assay with MDA-MB-453 [11] it was 75.2%; in the assay on CAL-51 [12], 92%.
For `Cc1ccc(C(=O)Nc2ccc(CN3CCN(C)CC3)c(C(F)(F)F)c2)cc1C#Cc1cnc2cccnn12` [Ponatinib] (300 nM), the normalised viability in the assay on CAL-85-1 [13] turned out to be 80.5%; in the assay with CAL-148 [14], 87.7%; in the assay on HDQ-P1 [15], 58.9%; in the assay with DU-4475 [16], 73.8%; in the assay on MDA-MB-453 [17], 54.3%; in the assay on CAL-51 [18] it was 73.9%.
For `N.N.[Cl][Pt][Cl]` [Cisplatin] (10000 nM), the normalised viability in the assay with CAL-85-1 [7] is 99.5%; in the assay on CAL-148 [8] it was 105%; in the assay on HDQ-P1 [9] it was 110%; with DU-4475 [10] it was 112%; with MDA-MB-453 [11] it was 97.4%; in the assay on CAL-51 [12] it was 105%.
`CN[C@@H]1C[C@H]2O[C@@](C)([C@@H]1OC)n1c3ccccc3c3c4c(c5c6ccccc6n2c5c31)C(=O)N[C@H]4O` [UCN-01] (3000 nM): the normalised viability with CAL-85-1 [13] was found to be 6.08%; in the assay with CAL-148 [14], 41.7%; with HDQ-P1 [15], 10.2%; with DU-4475 [16], 1.19%; in the assay with MDA-MB-453 [17] it was 20.2%; in the assay on CAL-51 [18], 6.6%.
In the case of `CN(C)/N=N/c1[nH]cnc1C(N)=O` [Dacarbazine] (3000 nM), the normalised viability is 87.3% in the assay with CAL-85-1 [13]; 94.8% in the assay with CAL-148 [14]; 95.5% in the assay on HDQ-P1 [15]; 101% in the assay on DU-4475 [16]; 95.7% with MDA-MB-453 [17]; 97.2% in the assay on CAL-51 [18].
Take `NC(=O)Nc1cc(-c2cccc(F)c2)sc1C(=O)N[C@H]1CCCNC1` [AZD 7762] (0.1 nM): the normalised viability with CAL-120 was 102%; in the assay on HCC1143 it was 115%; in the assay with HCC1937, 119%; with CAL-85-1 [1], 107%; in the assay with MFM-223, 108%; in the assay on BT-474, 115%. For the same compound, the normalised viability turned out to be 102% in the assay on SK-BR-3; 104% with CAL-148 [2]; 132% in the assay on HDQ-P1 [3]; 124% in the assay with Hs578T; 101% with DU-4475 [4]; 111% in the assay on MDA-MB-468. The normalised viability in the assay with MDA-MB-453 [5] came out at 117%; in the assay on CAL-51 [6], 101%; in the assay with MDA-MB-231 it was 115%; in the assay with MDA-MB-436 it was 115%; in the assay on BT-549 it was 108%; in the assay with HCC1599 it was 89%.
Consider `NCC(=O)CCC(=O)O` [Aminolevulinic acid] (1 nM), for which the normalised viability with CAL-120 came to 86.6%; with HCC1143 it was 91.7%; in the assay on HCC1937 it was 79.4%; with CAL-85-1 [1], 99.4%; in the assay on MFM-223, 96.5%; with BT-474, 108%. The normalised viability with SK-BR-3 came to 89%; in the assay with CAL-148 [2], 109%; in the assay on HDQ-P1 [3] it was 110%; in the assay with Hs578T, 104%; with DU-4475 [4] it was 107%; in the assay with MDA-MB-468, 103%. Further, the normalised viability in the assay with MDA-MB-453 [5] was found to be 98.8%; in the assay with CAL-51 [6], 107%; with MDA-MB-231 it was 118%; in the assay on MDA-MB-436 it was 105%; in the assay with BT-549, 91.1%; in the assay with HCC1599, 85%.

The record behind these values is the supplement of paper PMC4862054.
